In patent US7989602B2, “Synthetic molecules having immune activity” (The Malaghan Institute of Medical Research, priority 2003, dated 2011):
Like-named read-outs stand apart in the source and are kept apart here.

How the values were obtained:
[1] = test system: C57BL-6 mouse spleen cells; test: Cytokine production in vitro by mouse spleen cells (ELISA); assay type: cell-based
[2] = test system: airway eosinophilia; test: OVA-induced airway eosinophilia mouse model; assay type: in vivo, C57B1/6J mice
[3] = 5 μg/ml in PBS, 24 hours, 10^6 cells per well, ELISA
[4] = 5 μg/ml, dissolved in Tween/PBS, PIM-2 control also in 0.02% Tween/PBS, 24 hours

Row | Compound | IFNγ compared with PIM-2 control [1, 3] | IL-12 compared with PIM-2 control [1, 3] | induced production of IL-12 ([1]; in words, summary of Table 4) | induced production of IFNγ ([1]; in words, summary of Table 4) | further results
1 | CCCCCCCCCCCCCCCCCC(=O)OC[C@H](COP(=O)([O-])OCCO[C@H]1O[C@H](CO[C@H]2O[C@H](CO)[C@@H](O)[C@H](O)[C@@H]2O)[C@@H](O)[C@H](O)[C@@H]1O)OC(=O)CCCCCCCCCCCCCCCCC.[Na+] [Compound 28, Sodium 1-O-(1,2-di-O-stearoyl-sn-glycero-3-phosphoryl)-2-O-[6-O-(α-D-mannopyranosyl)-α-D-mannopyranosyl]-1,2-ethanediol] |  |  |  |  | IFNγ compared with PIM-2 control [1]: 0.62; IL-10 compared with PIM-2 control [1]: 0.36; IL-12 compared with PIM-2 control [1]: 1.15; induced production of IFNγ [1]: notable levels; induced production of IL-12 [1]: notable levels
2 | L-α-Phosphatidylinositol [reference compound] | 0.39 |  |  |  | 
3 | CCCCCCCCCCCCCCCCCC(=O)OC[C@H](COP(=O)([O-])O[C@@H]1CCCC[C@H]1OC1OC(CO)C(O)C(O)C1O)OC(=O)CCCCCCCCCCCCCCCCC.[Na+] (stereo partly drawn) [Compound 36, 1-O-(Sodium 1,2-di-O-stearoyl-sn-glycero-3-phosphoryl)-2-O-(-α-D-mannopyranosyl)-cyclohexane-1,2-diol] | 0.05 | 1.59 | levels greater than PIM-22,6 |  | IL-4 compared with PIM-2 control [1, 3]: 4.29; IL-10 compared with PIM-2 control [1, 3]: 0.60; induced production of IL-4 ([1]; in words, summary of Table 4): levels greater than PIM-22,6
4 | CCCCCCCCCCCCCCCCCC(=O)OC[C@H](COP(=O)([O-])OCCCOC1OC(CO)C(O)C(O)C1O)OC(=O)CCCCCCCCCCCCCCCCC.[Na+] (stereo partly shown) [Compound 31] | 0.75 | 1.80 | notable levels | notable levels | 
5 | CCCCCCCCCCCCCCCCCC(=O)OC[C@H](COP(=O)([O-])OC(COC1OC(CO)C(O)C(O)C1O)COC1OC(CO)C(O)C(O)C1O)OC(=O)CCCCCCCCCCCCCCCCC.[Na+] (stereo partly drawn) [Compound 44, Sodium(1,2-di-O-stearoyl-sn-glycero-3-phoshoryl)-2-[1,3-bis-O-(α-D-galactopyranoside)]glycerol] |  | 0.14 | a small amount |  | induced production of IL-12 ([1]; in words, summary of Table 4, listed as compound 44): only a low level
6 | CCCCCCCCCCCCCCCCCC(=O)OCC(COP(=O)(O)OC(COC1OC(CO)C(O)C(O)C1O)COC1OC(CO)C(O)C(O)C1O)OC(=O)CCCCCCCCCCCCCCCCC [Compound 15, Triethylammonium 2-O-(1,2-O-distearoyl-sn-glycero-3-phoshoryl)-1,3-bis-O-(α-D-mannopyranosyl)glycerol] | 0.98 |  |  | levels comparable to PIM-22,6 | Mean Eosinophil Count (×10^6), least square means by test molecule type ([2]; BAL 4 days after intranasal OVA challenge, intranasal treatment in 50 μl PBS, mean over dose rates 0, 0.02, 0.2, 2.0): 0.144 ×10^6
7 | CCCCCCCCCCCCCCCCCC(=O)OCC(CO[C@H]1O[C@H](CO)[C@@H](O)[C@H](O)[C@@H]1O)OC(=O)CCCCCCCCCCCCCCCCC (mixture of isomers) [Compound 17, 1,2-di-O-stearoyl-3-O-α-D-mannopyranosylglycerol] |  |  |  |  | biological activity ([2]; results not shown, stated in Example 2): not biologically active
8 | CCCCCCCCCCCCCCCCCC(=O)OC[C@H](COP(=O)(O)OCCO[C@H]1O[C@H](CO)[C@@H](O)[C@H](O)[C@@H]1O)OC(=O)CCCCCCCCCCCCCCCCC [Compound 7, Triethylammonium 1-O-(1,2-di-O-stearoyl-sn-glycero-3-phosphoryl)-2-O-(α-D-mannopyranosyl)-1,2-ethanediol] |  |  | notable levels | notable levels | IFNγ compared with PIM-2 control [1, 4]: 1.26; IL-12 compared with PIM-2 control [1, 4]: 1.03
9 | CCCCCCCCCCCCCCCCCCOP(=O)([O-])OC(COC1OC(CO)C(O)C(O)C1O)COC1OC(CO)C(O)C(O)C1O.[Na+] [Compound 47, Sodium 2-O-(Octadecylphosphoryl)-1,3-bis-O-(α-D-mannopyranosyl)glycerol] | 0.03 | 0.56 | induced production |  | IL-4 compared with PIM-2 control [1, 3]: 1.94; IL-10 compared with PIM-2 control [1, 3]: 0.53; induced production of IL-4 ([1]; in words, summary of Table 4): greater levels; induced production of IL-10 ([1]; in words, summary of Table 4): induced production
